Source: patent US9744137B2, “Topiramate compositions and methods of enhancing its bioavailability” (Supernus Pharmaceuticals, Inc., priority 2006, dated 2017)
Like-named read-outs stand apart in the source and are kept apart here.

Legend:
[1] = Degradation of topiramate in 0.1 N HCl (simulated gastric fluid) at 37° C., HPLC-ELSD; assay type: physicochemical; conditions: drug substance, 24 hours of incubation in 0.1 N HCl at 37° C.
Description: Degradation of topiramate was detected during a dissolution profile of Topamax® tablets in simulated gastric fluid (i.e., 0.1 N HCl). […] Topiramate analysis was carried out using HPLC equipped with Evaporative Laser Light Scattering Detector at 92° C. Separation was achieved using a C-8 reversed-phase column under isocratic conditions of 50% acetonitrile in water. The samples were kept at 4° C. throughout the analysis. Prior to sample injection, the system was equilibrated for 1 hr and subjected to a system suitability test. Linearity was evaluated by linearity curve with power fit. The samples were injected in duplicate and degradation was calculated using the sample area linearity slope and power.

[2] = cited from earlier work
[3] = test system: patients with epilepsy; conditions: cited from earlier work; for time leading up to the first seizure (median seizure-free duration): monotherapy
[4] = cited from earlier work; remark: listed apart in the source

## CC1(C)OC2[C@@H](CO[C@@]3(COS(N)(=O)=O)OC(C)(C)O[C@@H]23)O1 (stereo partly drawn) [topiramate, 2,3:4,5-Di-O-isopropylidene-beta-D-fructopyranose sulfamate]
[1]
  topiramate degraded: approximately 70%
[2]; in vivo
  effect of food on pharmacokinetics: not significantly affected by food
  mean elimination half life: about 21 hours
[2]; oral administration of an immediate release dosage form
  time to peak plasma drug concentrations: approximately 2 hours
[3]; 9 patients who became seizure-free
  plasma topiramate concentration: 5.3 ± 2.6 µg/mL
[3]; 215 patients with partial epilepsy, serum concentrations <1.8 mg/L
  time leading up to the first seizure (median seizure-free duration): 84 days
[3]; serum concentrations above 9.9 mg/L
  time leading up to the first seizure (median seizure-free duration): 451 days
[3]; serum concentrations between 1.8 and 9.9 mg/L
  time leading up to the first seizure (median seizure-free duration): 194 days
[3]; positive responders
  mean topiramate plasma concentration: around 7 μg/mL
[3]; seizure-free patients
  mean topiramate plasma concentration: ~9 µg/mL
[4]; migraine prophylaxis
  plasma levels at steady state: 1200 to 4400 ng/mL
[4]; pediatric migraine study, daily dose 84.0+/−38.6 mg/day
  mean serum level: 2800 ± 1600 ng/mL
